Experimental data taken from ChEMBL document CHEMBL1140635, “Computational modeling tools for the design of potent antimalarial bisbenzamidines: overcoming the antimalarial potential of pentamidine” (Bioorg Med Chem, 2007).

Tested on: Plasmodium falciparum
Experiment: Antiplasmodial activity against chloroquine-sensitive Plasmodium falciparum D6 by LDH reporter assay
Assay type: functional, organism-based

| IC50 [µM] | SMILES |
| --- | --- |
| 0.313 | N=C(N)c1ccc(OCc2ccccc2COc2ccc(C(=N)N)cc2)cc1 |
| 0.671 | N=C(N)c1ccc(COc2ccccc2OCc2ccc(C(=N)N)cc2)cc1 |
| 0.64 | N=C(N)c1ccc(NC(=O)CCCCC(=O)Nc2ccc(C(=N)N)cc2)cc1 |
| 0.085 | N=C(N)c1ccc(OCc2cccc(COc3ccc(C(=N)N)cc3)c2)cc1 |
| 0.402 | c1cc(C2=NCCN2)ccc1CC1CCN(c2ccc(C3=NCCN3)cc2)CC1 |
| 0.148 | c1cc(N2CCCN(c3ccc(C4=NCCN4)cc3)CC2)ccc1C1=NCCN1 |
| 0.089 | c1cc(N2CCN(c3ccc(C4=NCCN4)cc3)CC2)ccc1C1=NCCN1 |
| 4.88 | c1ccc2[nH]c(-c3ccc(N4CCN(c5ccc(-c6nc7ccccc7[nH]6)cc5)CC4)cc3)nc2c1 |
| 1.6 | N=C(N)c1ccc(N2CCCN(c3ccc(C(=N)N)cc3)CC2)cc1 |
| 0.114 | N=C(N)c1ccc(OCc2ccc(COc3ccc(C(=N)N)cc3)cc2)cc1 |
| 5.11 | c1cc(N2CCCN(c3ccc(C4=NCCCN4)cc3)CC2)ccc1C1=NCCCN1 |
| 0.84 | C(=C1CCN(c2ccc(C3=NCCN3)cc2)CC1)c1ccc(C2=NCCN2)cc1 |
| 0.106 | c1cc(N2CCN(c3ccc(C4=NCCCN4)cc3)CC2)ccc1C1=NCCCN1 |
| 0.138 | CCCCCCCCNC(=N)c1ccc(N2CCN(c3ccc(C(=N)NCCCCCCCC)cc3)CC2)cc1 |
| 3.89 | CCCCCCCCCCCCNC(=N)c1ccc(N2CCN(c3ccc(C(=N)NCCCCCCCCCCCC)cc3)CC2)cc1 |
| 0.306 | N=C(NC1CC1)c1ccc(N2CCCN(c3ccc(C(=N)NC4CC4)cc3)CC2)cc1 |
| 0.018 | CCCCNC(=N)c1ccc(N2CCCN(c3ccc(C(=N)NCCCC)cc3)CC2)cc1 |

| IC50 [µM] | SMILES |
| --- | --- |
| 0.358 | N=C(NC1CC1)c1ccc(N2CCN(c3ccc(C(=N)NC4CC4)cc3)CC2)cc1 |
| 0.088 | CCCCCCCCCNC(=N)c1ccc(N2CCN(c3ccc(C(=N)NCCCCCCCCC)cc3)CC2)cc1 |
| 0.075 | CCCCCCCCCCNC(=N)c1ccc(N2CCN(c3ccc(C(=N)NCCCCCCCCCC)cc3)CC2)cc1 |
| 0.042 | CC(C)CCNC(=N)c1ccc(N2CCN(c3ccc(C(=N)NCCC(C)C)cc3)CC2)cc1 |
| 0.036 | N=C(NC1CCCCCC1)c1ccc(N2CCN(c3ccc(C(=N)NC4CCCCCC4)cc3)CC2)cc1 |
| 8.8 | N=C(NCCCO)c1ccc(N2CCN(c3ccc(C(=N)NCCCO)cc3)CC2)cc1 |
| 0.007 | N=C(NC1CCC1)c1ccc(N2CCN(c3ccc(C(=N)NC4CCC4)cc3)CC2)cc1 |
| 0.069 | CCC(C)CNC(=N)c1ccc(N2CCN(c3ccc(C(=N)NCC(C)CC)cc3)CC2)cc1 (centres undefined) |
| 0.048 | CCCCCCCNC(=N)c1ccc(N2CCN(c3ccc(C(=N)NCCCCCCC)cc3)CC2)cc1 |
| 8.32 | N=C(NO)c1ccc(N2CCN(c3ccc(C(=N)NO)cc3)CC2)cc1 |
| 0.124 | CCNC(=N)c1ccc(N2CCN(c3ccc(C(=N)NCC)cc3)CC2)cc1 |
| 0.862 | CNC(=N)c1ccc(N2CCN(c3ccc(C(=N)NC)cc3)CC2)cc1 |
| 0.029 | CCCNC(=N)c1ccc(N2CCN(c3ccc(C(=N)NCCC)cc3)CC2)cc1 |
| 0.055 | N=C(NC1CCCCCCC1)c1ccc(N2CCN(c3ccc(C(=N)NC4CCCCCCC4)cc3)CC2)cc1 |
| 0.021 | CCCCCNC(=N)c1ccc(N2CCN(c3ccc(C(=N)NCCCCC)cc3)CC2)cc1 |
| 0.035 | CCCCCCNC(=N)c1ccc(N2CCN(c3ccc(C(=N)NCCCCCC)cc3)CC2)cc1 |

| SMILES | IC50 [µM] |
| --- | --- |
| N=C(N)c1ccc(OCCCCCOc2ccc(C(=N)N)cc2)cc1 [PENTAMIDINE] | 0.278 |
